Data published in PubChem BioAssay (NCI).
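How tested: cells in 96-well plates exposed to compound for 48 hours at five concentrations. Here, GI50 denotes the concentration required for 50% inhibition of growth. TGI is the concentration that stops growth completely.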

Tests used:
Assay in all cases: inhibition of tumour cell growth, NCI panel, 48 h
[1] = system: 786-0 renal
[2] = system: HCT-116 colon
[3] = system: SR leukemia
[4] = system: SK-MEL-2 melanoma
[5] = system: RPMI-8226 leukemia
[6] = system: K-562 leukemia
[7] = system: IGROV1 ovarian
[8] = system: NCI-H23 lung
[9] = system: SNB-75 CNS
[10] = system: NCI/ADR-RES ovarian
[11] = system: KM12 colon
[12] = system: UACC-62 melanoma
[13] = system: SNB-19 CNS
[14] = system: CAKI-1 renal
[15] = system: SF-539 CNS
[16] = system: MDA-MB-231 breast
[17] = system: EKVX NSCLC
[18] = system: SF-295 CNS
[19] = system: M14 melanoma
[20] = system: A549 NSCLC
[21] = system: HCT-15 colon
[22] = system: SK-MEL-28 melanoma
[23] = system: COLO 205 colon
[24] = system: OVCAR-5 ovarian
[25] = system: SF-268 CNS
[26] = system: DU-145 prostate
[27] = system: MCF7 breast
[28] = system: UACC-257 melanoma
[29] = system: OVCAR-3 ovarian
[30] = system: SK-MEL-5 melanoma
[31] = system: CCRF-CEM leukemia
[32] = system: HL-60(TB) leukemia
[33] = system: PC-3 prostate
[34] = system: LOX IMVI melanoma
[35] = system: OVCAR-4 ovarian
[36] = system: U251 CNS
[37] = system: HCC-2998 colon
[38] = system: T-47D breast
[39] = system: NCI-H226 lung
[40] = system: SW-620 colon
[41] = system: MOLT-4 leukemia
[42] = system: UO-31 renal
[43] = system: HT29 colon
[44] = system: BT-549 breast
[45] = system: A498 renal
[46] = system: TK-10 renal
[47] = system: SK-OV-3 ovarian
[48] = system: SN12C renal
[49] = system: NCI-H460 lung
[50] = system: NCI-H522 lung
[51] = system: HS 578T breast
[52] = system: ACHN renal
[53] = system: OVCAR-8 ovarian
[54] = system: MALME-3M melanoma
[55] = system: RXF 393 renal
[56] = system: HOP-62 NSCLC
[57] = system: MDA-MB-435

## COc1cccc(CNc2ncnc3c2ncn3C2OC(CO)C(O)C2O)c1O (stereo not given)
[1]
  GI50: 270 nM
  TGI: > 100000 nM
[2]
  GI50: 65.9 nM
[3]
  GI50: 65.1 nM
[4]
  GI50: 656 nM
  TGI: > 100000 nM
[5]
  GI50: 319 nM
  TGI: > 100000 nM
[6]
  GI50: 311 nM
  TGI: > 100000 nM
[7]
  GI50: 206 nM
[8]
  GI50: 282 nM
  TGI: > 100000 nM
[9]
  GI50: 174 nM
  TGI: 9960 nM
[10]
  GI50: 168 nM
  TGI: > 100000 nM
[11]
  GI50: 12900 nM
  TGI: > 100000 nM
[12]
  GI50: 347 nM
  TGI: > 31800 nM
[13]
  GI50: 480 nM
  TGI: > 100000 nM
[14]
  GI50: 66.7 nM
[15]
  GI50: 144 nM
  TGI: 1850 nM
[16]
  GI50: 30.2 nM
  TGI: 111 nM
[17]
  GI50: 559 nM
  TGI: > 59600 nM
[18]
  GI50: 165 nM
  TGI: 660 nM
[19]
  GI50: 248 nM
  TGI: > 100000 nM
[20]
  GI50: 1050 nM
  TGI: > 100000 nM
[21]
  GI50: 138 nM
  TGI: > 100000 nM
[22]
  GI50: 1550 nM
  TGI: > 100000 nM
[23]
  GI50: 702 nM
  TGI: 31100 nM
[24]
  GI50: 417 nM
  TGI: > 100000 nM
[25]
  GI50: 257 nM
  TGI: > 100000 nM
[26]
  GI50: 73.3 nM
  TGI: 1220 nM
[27]
  GI50: 369 nM
  TGI: > 100000 nM
[28]
  GI50: 1910 nM
  TGI: > 100000 nM
[29]
  GI50: 539 nM
  TGI: 4110 nM
[30]
  GI50: 1430 nM
  TGI: > 100000 nM
[31]
  TGI: > 100000 nM
[32]
  GI50: 30.3 nM
  TGI: 224 nM
[33]
  GI50: 179 nM
  TGI: > 100000 nM
[34]
  GI50: 61.6 nM
  TGI: > 100000 nM
[35]
  GI50: 105 nM
  TGI: > 100000 nM
[36]
  GI50: 522 nM
  TGI: > 100000 nM
[37]
  GI50: 391 nM
  TGI: > 38200 nM
[38]
  GI50: 54.9 nM
[39]
  TGI: > 100000 nM
[40]
  GI50: 159 nM
  TGI: > 100000 nM
[41]
  GI50: 353 nM
  TGI: > 44000 nM
[42]
  GI50: 123 nM
  TGI: > 28600 nM
[43]
  GI50: 900 nM
  TGI: > 100000 nM
[44]
  GI50: 20.5 nM
  TGI: 97.8 nM
[45]
  GI50: 205 nM
  TGI: 2210 nM
[46]
  GI50: 58 nM
  TGI: 1380 nM
[47]
  GI50: 179 nM
  TGI: 932 nM
[48]
  GI50: 45 nM
  TGI: > 100000 nM
[49]
  GI50: 931 nM
  TGI: > 100000 nM
[50]
  GI50: 84.8 nM
[51]
  GI50: 108 nM
  TGI: 577 nM
[52]
  GI50: 128 nM
[53]
  GI50: 67.9 nM
  TGI: > 43000 nM
[54]
  GI50: 259 nM
  TGI: 4380 nM
[55]
  GI50: 43.8 nM
  TGI: 360 nM
[56]
  GI50: 387 nM
  TGI: > 100000 nM
[57]
  GI50: 111 nM
  TGI: 2780 nM
